Source: patent publication US20150352134A1, “COMPOSITION FOR TOPICAL SKIN APPLICATION CONTAINING GINSENOSIDE F2 DERIVED FROM HYDROPONIC GINSENG” (AMOREPACIFIC CORPORATION, priority 2012, published 2015)

What was measured:
Straphylococcus aureus = assay: Antibacterial effect, MIC; assay type: cell-based, Staphylococcus aureus; details: 48 hours, 32°
Procedure: The antibacterial testing is carried out in order to evaluate the antibacterial effect of ginsenoside F2. The detailed testing method is as follows. Staphylococcus aureus, Escherichia coli, and pseudomonas aeruginosa strains are cultured with a tryptic soy broth, and candida albicans and aspergillus niger strains are cultured with sabouraud dextrose broth. The test bacterial liquid is the 1/100 (1/10 for candida albicans strain) diluted solution of the culture medium diluted with each medium. For aspergillus niger, the test bacterial liquid is the spore suspension prepared to 2×10^8 cfu/ml. 0.15 ml of the test bacterial liquid is added to 15 ml of each culture medium to prepare a well-blended diluted solution. 16 μl of the sample is put into each well on the first row of a 96-well plate, and 184 μl of the diluted solution is added to each well on the first row. Then, 100 μl of the diluted solution is put into each of the other wells. The mixed solution of the first row is sufficiently stirred, and 100 μl of the mixed solution is added to each well on the second row of the 96-well plate and stirred sufficiently. […] 48 hours later, the cell proliferation is determined by the turbidity index and microscopic observation to determine the minimum inhibitory concentration (MIC).

[1] = test system: prostaglandin generation in macrophagocytes collected from the abdominal cavity of a mouse; assay: Prostaglandin generation inhibition in LPS-treated macrophagocytes (ELISA); assay type: cell-based; details: 100 μl of ginsenoside F2
Procedure: The inflammatory effect is evaluated in terms of the inhibitory effect on prostaglandin generation. Ginsenoside F2 is used to measure the effect on macrophagocytes. Firstly, macrophagocytes collected from the abdominal cavity of a mouse are treated with aspirin to have the final concentration of 500 µM, causing irreversible inhibition on the activity of cyclooxygenase (COX) remaining in the macrophagocytes. Then, 100 μl of the suspension is put in each well of a 96-well culture plate and cultured in an incubator under the conditions of 5% CO2 and 37° C. for 2 hours to immobilize the macrophagocytes on the surface of the container. Subsequently, the immobilized macrophagocytes are washed with PBS three times and used in the inflammatory improvement test. […] Then, the macrophagocytes are treated with 100 μl of ginsenoside F2, and the isolated prostaglandin is quantitatively analyzed by way of ELISA (Enzyme-Linked ImmunoSorbent Assey).
In this regard, the prostaglandin generation inhibitory activity of the ginsenoside F2 is determined by the reduced amount of prostaglandin generated in the LPS-treated group in comparison with the case of the control in terms of the percentage amount of the prostaglandin decreased by treatment with LPS and the sample, while the difference in the amount of the generated prostaglandin between the LPS-treated group and the control group is set to 100%.

PAR-2 = molecular target: T1, PAR-2 (Homo sapiens, UniProt P55085); assay: Itching relief: inflow of Ca2+ into HaCaT keratinocytes after trypsin or PAR-2 activated peptide; assay type: cell-based
T1 construct: host or cells: HaCaT keratinocytes
T1 sequence (P55085 26-397): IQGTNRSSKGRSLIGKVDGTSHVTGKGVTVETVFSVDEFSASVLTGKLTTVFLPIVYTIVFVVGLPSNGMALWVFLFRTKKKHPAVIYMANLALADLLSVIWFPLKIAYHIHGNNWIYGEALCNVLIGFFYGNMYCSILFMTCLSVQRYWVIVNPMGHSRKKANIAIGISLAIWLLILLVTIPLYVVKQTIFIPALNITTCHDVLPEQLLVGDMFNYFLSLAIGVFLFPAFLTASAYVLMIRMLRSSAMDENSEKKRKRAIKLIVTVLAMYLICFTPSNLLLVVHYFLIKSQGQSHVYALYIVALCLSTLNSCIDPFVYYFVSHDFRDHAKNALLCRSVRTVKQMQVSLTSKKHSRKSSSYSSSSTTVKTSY
Procedure: One day before the testing, keratinocytes (HaCaT purchased from ATCC) are injected into a 96-well plate at a rate of 4×10^4 cells/well and cultured in an incubator under conditions of 5% CO2 and 37° C. for 24 hours. After 24 hours, the culture plate is washed with HBSS (Hank's Balanced Salt Solution) buffer twice, and a reaction buffer (2 μM Fluo-4-AM, 20% pluronic acid, 2.5 mM probenecid) is added to the cells. The culture plate is kept in an incubator under conditions of 5% CO2 and 37° C. for 30 minutes and allowed to react at the room temperature for 30 minutes. Then, the culture plate is washed with HBSS buffer twice, and the cells are treated with ginsenoside F2 at a concentration (%) as given in Table 25.
After completion of the reaction for 10 minutes, the cells are treated with 2 U/ml trypsin or 5 μM PAR-2 activated peptide (SLIGKV), and then the change of Ca^2+ concentration in the cells for 80 seconds is measured. The measurement method uses FlexStation3® (Molecular Device, U.S.A.). The difference between minimum and maximum flex values for 80 seconds after treatment with 2 U/ml trypsin or 5 μM PAR-2 activated peptide (SLIGKV) in combination with ginsenoside F2 is compared with the difference between minimum and maximum flex values for 80 seconds after treatment with 2 U/ml trypsin or 5 μM PAR-2 activated peptide (SLIGKV) alone.

3T3-L1 cells = assay: Lipogenesis inhibition in 3T3-L1 cells (Sudan III dyeing); assay type: cell-based, mouse; details: caffeine 50 μM; visual evaluation of fat accumulation
Procedure: The mouse fibroblast cell line, 3T3-L1 cells are immobilized in a 6-well culture plate filled with Dulbecco's modified eagle's medium (DMEM) (GIBCO BRL, Life Technologies, Inc.) containing 10% fetal bovine serum (FBS) at an amount of 1×10^5 cells/well. After 2 days, the used medium is replaced with a new DMEM (containing 10% FBS) medium to culture the cells for 2 days. […] After 5 days, the used DMEM medium is replaced with a normal medium (DMEM containing 10% FBS). The cells are cultured and observed until they are morphologically changed into fat cells. In order to evaluate the ginsenoside F2 in regards to the inhibitory effect on the fat accumulation in the fat cells, the completely differentiated 3T3-L1 fat cells are dyed with Sudan III ([…], Sigma-Aldrich). The fat cells are immobilized with 4% para-formaldehyde (pH 7.2) at the room temperature in a phosphate buffer solution. The fat cells are washed with phosphate-buffered saline (PBS) and then dyed with Sudan III. The picture of the fat cells is taken for visual evaluation. The control uses a medium using neither a test substance nor a comparative substance. The comparative control group is treated with 50 μM caffeine. The fat accumulation inhibitory ability is evaluated based on the degree of dying. The degree of dying is graded +++, ++, +, and - in the decreasing order.

In the case of `CC(C)=CCC[C@](C)(O[C@@H]1O[C@H](CO)[C@@H](O)[C@H](O)[C@H]1O)[C@H]1CC[C@]2(C)[C@@H]1[C@H](O)C[C@@H]1[C@@]3(C)CC[C@H](O[C@@H]4O[C@H](CO)[C@@H](O)[C@H](O)[C@H]4O)C(C)(C)[C@@H]3CC[C@]12C` [Ginsenoside F2, ginsenoside F2], the “MIC (%) Straphylococcus aureus” value (Straphylococcus aureus) is reported as 0.07%, the “prostaglandin generation (Blank = 100%)” value [1] is reported as 24.2% and the “Inhibition rate (%) on inflow of Ca^2+ into cells, Trypsin (2 U/ml)” value (from here on “Inhibition rate (%) on inflow”) (PAR-2; 0.05% ginsenoside F2) is reported as 23%. For the same compound, the “Inhibition rate (%) on inflow” value (PAR-2; 0.1% ginsenoside F2) was 30%, the “Inhibition rate (%) on inflow” value (PAR-2; 1.0% ginsenoside F2) was 41% and the inhibition at 0.05 % (PAR-2; HaCaT, 0.05% ginsenoside F2, read-out: Inhibition rate (%) on inflow of Ca^2+ into cells, PAR-2 activated peptide (5 μM)) was 26%. For the same compound, the inhibition at 0.1 % (PAR-2; HaCaT, 0.1% ginsenoside F2, read-out: Inhibition rate (%) on inflow of Ca^2+ into cells, PAR-2 activated peptide (5 μM)) was 35%, the inhibition at 0.5 % (PAR-2; HaCaT, 0.5% ginsenoside F2, read-out: Inhibition rate (%) on inflow of Ca^2+ into cells, PAR-2 activated peptide (5 μM)) was 40% and the inhibition at 1 % (PAR-2; HaCaT, 1.0% ginsenoside F2, read-out: Inhibition rate (%) on inflow of Ca^2+ into cells, PAR-2 activated peptide (5 μM)) was 47%. The “Degree of Sudan III staining (visual grade)” value (3T3-L1 cells) was “−”.
